{"source": "patent US20250034158A1", "about": "“TEXAPHYRIN DERIVATIVES FOR MANGANESE CHEMOTHERAPY, PHOTOACOUSTIC IMAGING, AND PHOTOTHERMAL THERAPY” (BOARD OF REGENTS, THE UNIVERSITY OF TEXAS SYSTEM, priority 2020, published 2025)", "key": {"[1]": {"test": "Photostability under photoirradiation (UV-Vis absorption over time)", "type": "physicochemical", "settings": "fluence ~18 mJ/cm^2", "text": "Measurements were taken at 5-minute intervals. Fluence: 20 mJ/cm^2. Laser wavelength: 780 nm.\nMeasurements were taken at 5-minute intervals. Fluence: 20 mJ/cm^2. Laser wavelength: 725 nm.\nMeasurements were taken at 5-minute intervals. Fluence: 20 mJ/cm^2. Laser wavelength: 740 nm.\nPhotostability is also relevant factor to consider for a potential PA contrast agent for clinical applications."}, "C4-2 tumor [2]": {"test_system": "C4-2 tumor", "test": "In vivo PA imaging, prostate tumor mouse model, tail vein injection", "settings": "500 μM, 200 μL, 5 μmol/kg, after 24 h", "method": "(§1) Male BALB/c nude mice (18±2 g, 4-6 weeks old) were purchased from a commercial source and used according to standard animal guidelines for the care and use of laboratory animals with appropriate ethical oversight board approval.\nHuman prostate cancer cell lines C4-2 were purchased from commercial sources and cultured in Dulbecco's Modified Eagle Medium (DMEM) (Life Technologies, NY, USA) supplemented with 10% fetal bovine serum (FBS; Cyclone, UT, USA). Cells were incubated at 37° C. in a humidified atmosphere containing 5% CO2. For C4-2 tumor inoculation, C4-2 cells (˜1×10^6) suspended in PBS were injected under the nude mice epidermis of the right flank. Animals were observed every day for any behavioral abnormalities. […]\n(§2) An optical parametric oscillator (OPO) laser source (Innolas GmbH, Bonn, Germany) emitting 8 ns pulsed lasers was coupled to a multimode optical fiber with a 1500 μm core diameter for the photoacoustic signal excitation. […] This led to the vibration of the tissue, which generated ultrasonic waves that could be recorded by a commercial 128-element linear array transrectal ultrasound transducer. […]\nTo test further the PA imaging potential of MMn, in vivo experiments were performed using a prostate tumor mouse model as shown in FIG. 19. […] Normalized PA intensity values were then calculated. […]"}, "C4-2 tumor [3]": {"test_system": "C4-2 tumor", "test": "In vivo stability of PA signal after direct injection at the tumor site", "design": "species or system mouse", "settings": "250 μM, 50 μL, 0.625 μmol/kg, direct injection into tumor, 0-60 min", "method": "Laser light was used to illuminate the tumor during data collection: 800 nm, 20 mJ for ICG and 725 nm, 20 mJ for MMn.\nLaser wavelength: 800 nm, Laser fluence: 20 mJ/cm^2. Percentage of PA signal after 1 hour=46%\nLaser wavelength: 725 nm, Laser fluence: 20 mJ/cm^2. Percentage of PA signal after 1 hour=91%\nas §1\nHuman prostate cancer cell lines C4-2 were purchased from commercial sources and cultured in Dulbecco's Modified Eagle Medium (DMEM) (Life Technologies, NY, USA) supplemented with 10% fetal bovine serum (FBS; Cyclone, UT, USA). […]\nas §2\nTo confirm the in vivo stability of MMn for PA imaging, MMn was injected directly at the tumor site and the PA signal was measured over time (0-60 mins) with concurrent US imaging. […]"}}, "data": [{"compound": "CC1(C)C(/C=C/C=C/C=C/C=C2\\N(CCCCS(=O)(=O)O)c3ccc4ccccc4c3C2(C)C)=[N+](CCCCS(=O)(=O)[O-])c2ccc3ccccc3c21", "note": "[ICG, Indocyanine green]", "values": [{"measurement": "change in absorption at 780 nm over photoirradiation", "setting": "[1]; 40 μM, 30 minutes", "result": 90, "unit": "%"}, {"measurement": "photostability upon photoirradiation", "setting": "[1]; ICG: 100 μM, 20 minutes, 780 nm", "result": "poor photostability"}, {"measurement": "increase in normalized PA signal intensity at the tumor site relative to pre-injection", "setting": "C4-2 tumor [2]", "result": "No significant increase"}, {"measurement": "PA signal remaining at tumor site after 1 hour", "setting": "C4-2 tumor [3]", "result": 46, "unit": "%"}]}]}
